Molecular target: T1, GST-MCU (recombinant) (Homo sapiens, UniProt Q8NE86)
T1 construct: recombinant GST fusion
T1 sequence (Q8NE86 51-351): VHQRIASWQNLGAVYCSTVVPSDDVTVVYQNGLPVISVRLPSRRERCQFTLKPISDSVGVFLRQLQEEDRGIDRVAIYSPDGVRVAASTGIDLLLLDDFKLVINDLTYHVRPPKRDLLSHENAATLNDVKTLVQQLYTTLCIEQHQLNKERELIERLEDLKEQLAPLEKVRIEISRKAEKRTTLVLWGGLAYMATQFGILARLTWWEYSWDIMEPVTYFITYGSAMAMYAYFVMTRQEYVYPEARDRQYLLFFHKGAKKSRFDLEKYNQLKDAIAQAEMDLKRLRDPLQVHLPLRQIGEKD
Assay: in vitro biotin pull-down, immunoblot
Type: binding
Details: biotin-labelled compound 2 µg, 4 °C; competed by free berberine

With `COc1ccc2cc3[n+](cc2c1OC(=O)CCCCCNC(=O)CCCC[C@@H]1SC[C@@H]2NC(=O)N[C@@H]21)CCc1cc2c(cc1-3)OCO2` [Biotin-Berberine] the “in vitro biotin pull-down, immunoblot” value was “Biotin‐BBR directly binds to recombinant glutathione‐S‐transferase (GST)‐MCU”.

Reference: paper PMC12061237, “Berberine is a Novel Mitochondrial Calcium Uniporter Inhibitor that Disrupts MCU‐EMRE Assembly” (Advanced Science, 2025)
